This passage reports inhibition results from PubChem BioAssay AID651986 (The Scripps Research Institute Molecular Screening Center, 2013).

Holding throughout (assay): in situ LYPLA1 and LYPLA2 inhibition, late-stage follow-up, gel-based ABPP, fluorescence, HEK293T, murine T cells (AID 651986)
Experiment [1] addresses Acyl-protein thioesterase 1 (Homo sapiens) (UniProt O75608). Particulars: HEK293T or murine T cells, NHU5 gel-based ABPP, LYPLA1 HEK293T cells, at 5 µM, active compounds read high.
Experiment [2] concerns the target Acyl-protein thioesterase 2 (Homo sapiens) (UniProt O95372). Particulars: HEK293T or murine T cells, NHU5 gel-based ABPP, LYPLA2 HEK293T cells, at 5 µM, active compounds read high.
Experiment [3] has as its system LYPLA1 murine T cells. Particulars: HEK293T or murine T cells, NHU5 gel-based ABPP, at 5 µM, active compounds read high.
Experiment [4] has as its system LYPLA2 murine T cells. Particulars: HEK293T or murine T cells, NHU5 gel-based ABPP, at 5 µM, active compounds read high.

SMILES strings stand for the structures. Activity calls are given as the source filed them. How the calls were made is not given here.

In general, inhibition refers to the share of the control response that was lost under treatment.

Sequence of Acyl-protein thioesterase 2 (Homo sapiens) (O95372 whole entry, looked up): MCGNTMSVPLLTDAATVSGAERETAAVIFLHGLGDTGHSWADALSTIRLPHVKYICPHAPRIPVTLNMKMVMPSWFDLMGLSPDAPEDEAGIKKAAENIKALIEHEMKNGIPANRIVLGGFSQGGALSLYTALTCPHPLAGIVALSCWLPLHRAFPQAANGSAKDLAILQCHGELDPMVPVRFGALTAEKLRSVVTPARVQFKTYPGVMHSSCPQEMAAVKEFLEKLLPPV
Sequence of Acyl-protein thioesterase 1 (Homo sapiens) (O75608 whole entry, looked up): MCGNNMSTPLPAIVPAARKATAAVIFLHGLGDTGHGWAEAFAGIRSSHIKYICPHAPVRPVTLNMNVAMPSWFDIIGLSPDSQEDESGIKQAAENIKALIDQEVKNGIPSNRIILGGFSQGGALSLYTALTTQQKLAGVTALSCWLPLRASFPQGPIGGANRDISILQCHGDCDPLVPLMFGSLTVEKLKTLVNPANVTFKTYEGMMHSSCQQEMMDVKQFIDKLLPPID

As to `O=C(CN1CCN(C(=O)c2ccco2)CC1)Nc1cc(C(F)(F)F)ccc1Cl`, the inhibition in experiment [1] is 100%; in experiment [2] it was 0% (inactive); in experiment [3], 100%; in experiment [4], 0% (inactive).
For the compound `COc1ccc(N2CCN(C(=O)c3cc4c(s3)-c3ccccc3S(=O)(=O)C4)CC2)cc1`, the inhibition in experiment [1] is 0% (inactive); in experiment [2], 100%; in experiment [3], 0% (inactive); in experiment [4] it was 100%.
